# Reference: BigSolDB 2.1
smiles,measurement,setting,value
O=P(O)(O)c1ccccc1,solubility (mole fraction),"in 1,4-dioxane, 288.15 K",0.186
same,solubility (mole fraction),"in 1,4-dioxane, 293.15 K",0.208
same,solubility (mole fraction),"in 1,4-dioxane, 298.15 K",0.224
same,solubility (mole fraction),"in 1,4-dioxane, 303.15 K",0.243
same,solubility (mole fraction),"in 1,4-dioxane, 308.15 K",0.264
same,solubility (mole fraction),"in 1,4-dioxane, 313.15 K",0.286
same,solubility (mole fraction),"in 1,4-dioxane, 318.15 K",0.307
same,solubility (mole fraction),"in 1,4-dioxane, 323.15 K",0.336
same,solubility (mole fraction),"in 1,4-dioxane, 328.15 K",0.36
same,solubility (mole fraction),"in 1,4-dioxane, 333.15 K",0.388
same,solubility (mole fraction),"in 2-butoxyethanol, 278.15 K",0.199
same,solubility (mole fraction),"in 2-butoxyethanol, 283.15 K",0.208
same,solubility (mole fraction),"in 2-butoxyethanol, 288.15 K",0.218
same,solubility (mole fraction),"in 2-butoxyethanol, 293.15 K",0.231
same,solubility (mole fraction),"in 2-butoxyethanol, 298.15 K",0.243
same,solubility (mole fraction),"in 2-butoxyethanol, 303.15 K",0.258
same,solubility (mole fraction),"in 2-butoxyethanol, 308.15 K",0.27
same,solubility (mole fraction),"in 2-butoxyethanol, 313.15 K",0.283
same,solubility (mole fraction),"in 2-butoxyethanol, 318.15 K",0.298
same,solubility (mole fraction),"in 2-butoxyethanol, 323.15 K",0.317
same,solubility (mole fraction),"in 2-butoxyethanol, 328.15 K",0.334
same,solubility (mole fraction),"in 2-butoxyethanol, 333.15 K",0.355
same,solubility (mole fraction),"in 2-ethoxyethanol, 278.15 K",0.305
same,solubility (mole fraction),"in 2-ethoxyethanol, 283.15 K",0.317
same,solubility (mole fraction),"in 2-ethoxyethanol, 288.15 K",0.327
same,solubility (mole fraction),"in 2-ethoxyethanol, 293.15 K",0.339
same,solubility (mole fraction),"in 2-ethoxyethanol, 298.15 K",0.35
same,solubility (mole fraction),"in 2-ethoxyethanol, 303.15 K",0.363
same,solubility (mole fraction),"in 2-ethoxyethanol, 308.15 K",0.378
same,solubility (mole fraction),"in 2-ethoxyethanol, 313.15 K",0.391
same,solubility (mole fraction),"in 2-ethoxyethanol, 318.15 K",0.404
same,solubility (mole fraction),"in 2-ethoxyethanol, 323.15 K",0.42
same,solubility (mole fraction),"in 2-ethoxyethanol, 328.15 K",0.439
same,solubility (mole fraction),"in 2-ethoxyethanol, 333.15 K",0.454
same,solubility (mole fraction),"in 2-methoxyethanol, 278.15 K",0.342
same,solubility (mole fraction),"in 2-methoxyethanol, 283.15 K",0.348
same,solubility (mole fraction),"in 2-methoxyethanol, 288.15 K",0.359
same,solubility (mole fraction),"in 2-methoxyethanol, 293.15 K",0.371
same,solubility (mole fraction),"in 2-methoxyethanol, 298.15 K",0.383
same,solubility (mole fraction),"in 2-methoxyethanol, 303.15 K",0.397
same,solubility (mole fraction),"in 2-methoxyethanol, 308.15 K",0.408
same,solubility (mole fraction),"in 2-methoxyethanol, 313.15 K",0.425
same,solubility (mole fraction),"in 2-methoxyethanol, 318.15 K",0.439
same,solubility (mole fraction),"in 2-methoxyethanol, 323.15 K",0.453
same,solubility (mole fraction),"in 2-methoxyethanol, 328.15 K",0.468
same,solubility (mole fraction),"in 2-methoxyethanol, 333.15 K",0.483
same,solubility (mole fraction),"in 2-propoxyethanol, 278.15 K",0.244
same,solubility (mole fraction),"in 2-propoxyethanol, 283.15 K",0.257
same,solubility (mole fraction),"in 2-propoxyethanol, 288.15 K",0.266
same,solubility (mole fraction),"in 2-propoxyethanol, 293.15 K",0.28
same,solubility (mole fraction),"in 2-propoxyethanol, 298.15 K",0.295
same,solubility (mole fraction),"in 2-propoxyethanol, 303.15 K",0.307
same,solubility (mole fraction),"in 2-propoxyethanol, 308.15 K",0.318
same,solubility (mole fraction),"in 2-propoxyethanol, 313.15 K",0.336
same,solubility (mole fraction),"in 2-propoxyethanol, 318.15 K",0.349
same,solubility (mole fraction),"in 2-propoxyethanol, 323.15 K",0.368
same,solubility (mole fraction),"in 2-propoxyethanol, 328.15 K",0.382
same,solubility (mole fraction),"in 2-propoxyethanol, 333.15 K",0.401
same,solubility (mole fraction),"in acetone, 273.15 K",0.0872
same,solubility (mole fraction),"in acetone, 278.15 K",0.101
same,solubility (mole fraction),"in acetone, 283.15 K",0.113
same,solubility (mole fraction),"in acetone, 288.15 K",0.13
same,solubility (mole fraction),"in acetone, 293.15 K",0.144
same,solubility (mole fraction),"in acetone, 298.15 K",0.162
same,solubility (mole fraction),"in acetone, 303.15 K",0.178
same,solubility (mole fraction),"in acetone, 308.15 K",0.201
same,solubility (mole fraction),"in acetone, 313.15 K",0.223
same,solubility (mole fraction),"in acetone, 318.15 K",0.249
same,solubility (mole fraction),"in ethanol, 278.15 K",0.288
same,solubility (mole fraction),"in ethanol, 283.15 K",0.295
same,solubility (mole fraction),"in ethanol, 288.15 K",0.305
same,solubility (mole fraction),"in ethanol, 293.15 K",0.314
same,solubility (mole fraction),"in ethanol, 298.15 K",0.326
same,solubility (mole fraction),"in ethanol, 303.15 K",0.334
same,solubility (mole fraction),"in ethanol, 308.15 K",0.347
same,solubility (mole fraction),"in ethanol, 313.15 K",0.357
same,solubility (mole fraction),"in ethanol, 318.15 K",0.371
same,solubility (mole fraction),"in ethanol, 323.15 K",0.383
same,solubility (mole fraction),"in ethanol, 328.15 K",0.394
same,solubility (mole fraction),"in ethanol, 333.15 K",0.407
same,solubility (mole fraction),"in isopropanol, 278.15 K",0.24
same,solubility (mole fraction),"in isopropanol, 283.15 K",0.251
same,solubility (mole fraction),"in isopropanol, 288.15 K",0.265
same,solubility (mole fraction),"in isopropanol, 293.15 K",0.277
same,solubility (mole fraction),"in isopropanol, 298.15 K",0.291
same,solubility (mole fraction),"in isopropanol, 303.15 K",0.307
same,solubility (mole fraction),"in isopropanol, 308.15 K",0.317
same,solubility (mole fraction),"in isopropanol, 313.15 K",0.331
same,solubility (mole fraction),"in isopropanol, 318.15 K",0.346
same,solubility (mole fraction),"in isopropanol, 323.15 K",0.361
same,solubility (mole fraction),"in isopropanol, 328.15 K",0.376
same,solubility (mole fraction),"in isopropanol, 333.15 K",0.394
same,solubility (mole fraction),"in methanol, 273.15 K",0.29
same,solubility (mole fraction),"in methanol, 278.15 K",0.299
same,solubility (mole fraction),"in methanol, 283.15 K",0.307
same,solubility (mole fraction),"in methanol, 288.15 K",0.315
same,solubility (mole fraction),"in methanol, 293.15 K",0.324
same,solubility (mole fraction),"in methanol, 298.15 K",0.335
same,solubility (mole fraction),"in methanol, 303.15 K",0.347
same,solubility (mole fraction),"in methanol, 308.15 K",0.357
same,solubility (mole fraction),"in methanol, 313.15 K",0.369
same,solubility (mole fraction),"in methanol, 318.15 K",0.38
same,solubility (mole fraction),"in n-butanol, 278.15 K",0.193
same,solubility (mole fraction),"in n-butanol, 283.15 K",0.204
same,solubility (mole fraction),"in n-butanol, 288.15 K",0.22
same,solubility (mole fraction),"in n-butanol, 293.15 K",0.232
same,solubility (mole fraction),"in n-butanol, 298.15 K",0.248
same,solubility (mole fraction),"in n-butanol, 303.15 K",0.26
same,solubility (mole fraction),"in n-butanol, 308.15 K",0.273
same,solubility (mole fraction),"in n-butanol, 313.15 K",0.29
same,solubility (mole fraction),"in n-butanol, 318.15 K",0.304
same,solubility (mole fraction),"in n-butanol, 323.15 K",0.321
same,solubility (mole fraction),"in n-butanol, 328.15 K",0.337
same,solubility (mole fraction),"in n-butanol, 333.15 K",0.354
same,solubility (mole fraction),"in n-heptanol, 278.15 K",0.122
same,solubility (mole fraction),"in n-heptanol, 283.15 K",0.133
same,solubility (mole fraction),"in n-heptanol, 288.15 K",0.143
same,solubility (mole fraction),"in n-heptanol, 293.15 K",0.158
same,solubility (mole fraction),"in n-heptanol, 298.15 K",0.17
same,solubility (mole fraction),"in n-heptanol, 303.15 K",0.183
same,solubility (mole fraction),"in n-heptanol, 308.15 K",0.196
same,solubility (mole fraction),"in n-heptanol, 313.15 K",0.212
same,solubility (mole fraction),"in n-heptanol, 318.15 K",0.227
same,solubility (mole fraction),"in n-heptanol, 323.15 K",0.243
same,solubility (mole fraction),"in n-heptanol, 328.15 K",0.26
same,solubility (mole fraction),"in n-heptanol, 333.15 K",0.278
same,solubility (mole fraction),"in n-hexanol, 278.15 K",0.134
same,solubility (mole fraction),"in n-hexanol, 283.15 K",0.146
same,solubility (mole fraction),"in n-hexanol, 288.15 K",0.159
same,solubility (mole fraction),"in n-hexanol, 293.15 K",0.174
same,solubility (mole fraction),"in n-hexanol, 298.15 K",0.188
same,solubility (mole fraction),"in n-hexanol, 303.15 K",0.202
same,solubility (mole fraction),"in n-hexanol, 308.15 K",0.218
same,solubility (mole fraction),"in n-hexanol, 313.15 K",0.23
same,solubility (mole fraction),"in n-hexanol, 318.15 K",0.245
same,solubility (mole fraction),"in n-hexanol, 323.15 K",0.26
same,solubility (mole fraction),"in n-hexanol, 328.15 K",0.278
same,solubility (mole fraction),"in n-hexanol, 333.15 K",0.297
same,solubility (mole fraction),"in n-octanol, 278.15 K",0.0997
same,solubility (mole fraction),"in n-octanol, 283.15 K",0.11
same,solubility (mole fraction),"in n-octanol, 288.15 K",0.123
same,solubility (mole fraction),"in n-octanol, 293.15 K",0.134
same,solubility (mole fraction),"in n-octanol, 298.15 K",0.147
same,solubility (mole fraction),"in n-octanol, 303.15 K",0.161
same,solubility (mole fraction),"in n-octanol, 308.15 K",0.177
same,solubility (mole fraction),"in n-octanol, 313.15 K",0.189
same,solubility (mole fraction),"in n-octanol, 318.15 K",0.202
same,solubility (mole fraction),"in n-octanol, 323.15 K",0.218
same,solubility (mole fraction),"in n-octanol, 328.15 K",0.234
same,solubility (mole fraction),"in n-octanol, 333.15 K",0.252
same,solubility (mole fraction),"in n-pentanol, 278.15 K",0.161
same,solubility (mole fraction),"in n-pentanol, 283.15 K",0.175
same,solubility (mole fraction),"in n-pentanol, 288.15 K",0.186
same,solubility (mole fraction),"in n-pentanol, 293.15 K",0.199
same,solubility (mole fraction),"in n-pentanol, 298.15 K",0.212
same,solubility (mole fraction),"in n-pentanol, 303.15 K",0.226
same,solubility (mole fraction),"in n-pentanol, 308.15 K",0.242
same,solubility (mole fraction),"in n-pentanol, 313.15 K",0.258
same,solubility (mole fraction),"in n-pentanol, 318.15 K",0.273
same,solubility (mole fraction),"in n-pentanol, 323.15 K",0.287
same,solubility (mole fraction),"in n-pentanol, 328.15 K",0.308
same,solubility (mole fraction),"in n-pentanol, 333.15 K",0.323
same,solubility (mole fraction),"in n-propanol, 278.15 K",0.236
same,solubility (mole fraction),"in n-propanol, 283.15 K",0.248
same,solubility (mole fraction),"in n-propanol, 288.15 K",0.262
same,solubility (mole fraction),"in n-propanol, 293.15 K",0.271
same,solubility (mole fraction),"in n-propanol, 298.15 K",0.286
same,solubility (mole fraction),"in n-propanol, 303.15 K",0.296
same,solubility (mole fraction),"in n-propanol, 308.15 K",0.311
same,solubility (mole fraction),"in n-propanol, 313.15 K",0.321
same,solubility (mole fraction),"in n-propanol, 318.15 K",0.332
same,solubility (mole fraction),"in n-propanol, 323.15 K",0.347
same,solubility (mole fraction),"in n-propanol, 328.15 K",0.361
same,solubility (mole fraction),"in n-propanol, 333.15 K",0.375
